Where a name gives a salt, the structure may show the parent alone.
Compared with `NC1(c2ccc(C#CC(=O)Nc3ccc(-c4ccc(Cl)cc4)cc3)cc2)CC1` (as salt: trifluoroacetate) [Example 1.422, 3-[4-(1-aminocyclopropyl)phenyl]propynoic acid-(4′-chlorobiphenyl-4-yl)amide trifluoroacetate], `CC1(O)CCN(Cc2ccc(C#CC(=O)Nc3ccc(-c4ccc(Cl)cc4)cc3)cc2)CC1` [Example 1.37, 3-[4-(4-hydroxy-4-methylpiperidin-1-ylmethyl)phenyl]propynoic acid-(4′-chlorobiphenyl-4-yl)amide] is higher in melting point: 160 to 164 °C for the first, 192 to 193 °C for the second.

Compared with `CCN(CC)CCOc1ccc(NC(=O)C#Cc2ccc(Cl)cc2Cl)cc1` [Example 3.4, 3-(2,4-dichlorophenyl)propynoic acid-[4-(2-diethylaminoethoxy)phenyl]amide], `CCN(CC)CCOc1ccc(NC(=O)C#Cc2ccc(C(F)(F)F)cc2Cl)cc1F` [Example 4.25, 3-(2-chloro-4-trifluoromethylphenyl)propynoic acid-[4-(3-diethylaminoethoxy)-3-fluorophenyl]amide] is lower in melting point: 107 to 109 °C for the first, 85 to 88 °C for the second.

First: CN(CCCN)Cc1ccc(CCC(=O)Nc2ccc(-c3ccc(Cl)cc3)cc2)cc1 [Example 6.27, 3-(4-{[(3-aminopropyl)methylamino]methyl}phenyl)-N-(4′-chlorobiphenyl-4-yl)propionamide]
Second: COCCN(Cc1ccc(CCC(=O)Nc2ccc(-c3ccc(Cl)cc3)cc2)cc1)CC(C)(C)O [Example 6.14, N-(4′-chlorobiphenyl-4-yl)-3-(4-{[(2-hydroxy-2-methylpropyl)-(2-methoxyethyl)amino]methyl}phenyl)propionamide]
The melting point of the first is higher: 165 °C for the first, 108 to 109 °C for the second.

First: O=C(CCc1ccc(CN2CCC[C@@H]2CO)cc1)Nc1ccc(-c2ccc(Cl)cc2)cc1 [Example 6.8, N-(4′-chlorobiphenyl-4-yl)-3-[4-((R)-2-hydroxymethylpyrrolidin-1-ylmethyl)phenyl]propionamide]
Second: O=C(CCc1ccc(CN2CCOCC2)cc1)Nc1ccc(-c2ccc(Cl)cc2)cc1 [Example 6.4, N-(4′-chlorobiphenyl-4-yl)-3-(4-morpholin-4-ylmethylphenyl)propionamide]
The melting point of the first is lower: 156 to 157 °C for the first, 193 to 194 °C for the second.

First: CCN(CC)CCOc1ccc(NC(=O)C#Cc2c(Cl)cc(Cl)cc2Cl)cc1Cl (as salt: hydrochloride) [Example 4.5, 3-(2,4,6-trichlorophenyl)propynoic acid-[3-chloro-4-(2-diethylaminoethoxy)phenyl]amide hydrochloride]
Second: CCN(CC)CCOc1ccc(NC(=O)C#Cc2cccnc2)cc1Cl [Example 4.285, 3-pyridin-3-ylpropynoic acid-[3-chloro-4-(2-diethylaminoethoxy)phenyl]amide]
The melting point of the first is higher: 188 to 191 °C for the first, 118 to 120 °C for the second.

First: O=C(C#Cc1ccc(CN2CCC(O)CC2)cc1)Nc1ccc(-c2ccc(Cl)cc2)cc1F [Example 1.21, 3-[4-(4-hydroxypiperidin-1-ylmethyl)phenyl]propynoic acid-(4′-chloro-3-fluorobiphenyl-4-yl)amide]
Second: O=C(C#Cc1ccc(-c2ccc(Cl)cc2)cc1)Nc1ccc(CN2CCC(O)CC2)cc1 [Example 3.18, 3-(4′-chlorobiphenyl-4-yl)propynoic acid-[4-(4-hydroxy-1-piperidin-1-ylmethyl)phenyl]amide]
The melting point of the first is lower: 164 to 165 °C for the first, 243 to 247 °C for the second.

First: CC(C)(O)C1CCN(Cc2ccc(C#CC(=O)Nc3ccc(-c4ccc(Cl)cc4)cc3)cc2)CC1 [Example 1.34, 3-{4-[4-(1-hydroxy-1-methylethyl)piperidin-1-ylmethyl]phenyl}propynoic acid-(4′-chlorobiphenyl-4-yl)amide]
Second: O=C(C#Cc1ccc(CN2CCCCC2)cc1)Nc1ccc(-c2ccc(Cl)cc2)cc1 [Example 1.39, 3-(4-piperidin-1-ylemthylphenyl)propynoic acid-(4′-chlorobiphenyl-4-yl)amide]
The melting point of the first is higher: 194 to 195 °C for the first, 179.5 °C for the second.

First: O=C(C#Cc1ccc(-c2ccc(Cl)cc2)cn1)Nc1ccc(CN2CCC(O)CC2)cc1 [Example 3.168, 3-[5-(4-chlorophenyl)pyridin-2-yl]propynoic acid-[4-(4-hydroxypiperidin-1-ylmethyl)phenyl]amide]
Second: CN(Cc1ccc(C#CC(=O)Nc2ccc(-c3ccc(Cl)cc3)cc2)cc1)CC1CC1 [Example 1.40]
The melting point of the first is higher: 186 to 190 °C for the first, 181 °C for the second.

First: COc1cc(NC(=O)C#Cc2ccc(C(F)(F)F)cc2Cl)ccc1OCCN1CCOCC1 [Example 4.273, 3-(2-chloro-4-trifluoromethylphenyl)propynoic acid-[3-methoxy-4-(2-morpholin-4-ylethoxy)phenyl]amide]
Second: COc1cc(NC(=O)C#Cc2ccc(C(F)(F)F)cc2Cl)ccc1OCCN1CCC(OC)CC1 [Example 4.274, 3-(2-chloro-4-trifluoromethylphenyl)propynoic acid-{3-methoxy-4-[2-(4-methoxypiperidin-1-yl)ethoxy]phenyl}amide]
The melting point of the first is higher: 209 to 211 °C for the first, 195 to 197 °C for the second.

Compared with `CN(Cc1ccc(/C=C/C(=O)Nc2ccc(-c3ccc(Cl)cc3)cc2)cc1)C1CCOCC1` [Example 5.7, (E)-N-(4′-chlorobiphenyl-4-yl)-3-(4-{[methyl-(tetrahydropyran-4-yl)amino]methyl}phenyl)acrylamide], `CN(Cc1ccc(/C=C/C(=O)Nc2ccc(-c3ccc(Cl)cc3)cc2)cc1)C1CCN(C(=O)OC(C)(C)C)CC1` [Example 5.35, tert-butyl 4-({-[(E)-2-(4′-chlorobiphenyl-4-ylcarbamoyl)vinyl]benzyl}methylamino)piperidine-1-carboxylate] is lower in melting point: 196 to 197 °C for the first, 168 to 169 °C for the second.

Compared with `O=C(/C=C/c1ccc(CN2CCC(N3CCCCC3)C2)cc1)Nc1ccc(-c2ccc(Cl)cc2)cc1` (centres unmarked) [Example 5.28, (E)-N-(4′-chlorobiphenyl-4-yl)-3-[4-(3-piperidin-1-ylpyrrolidin-1-ylmethyl)phenyl]acrylamide], `O=C(CCc1ccc(CN2CCC(N3CCCCC3)C2)cc1)Nc1ccc(-c2ccc(Cl)cc2)cc1` (centres unmarked) [Example 6.25, N-(4′-chlorobiphenyl-4-yl)-3-[4-(3-piperidin-1-ylpyrrolidin-1-ylmethyl)phenyl]propionamide] is lower in melting point: 209 to 210 °C for the first, 168.8 °C for the second.

Compared with `O=C(/C=C/c1ccc(CN2CCC3(CCCC3)CC2)cc1)Nc1ccc(-c2ccc(Cl)cc2)cc1` [Example 5.25, (E)-3-[4-(8-azaspiro[4.5]dec-8-ylmethyl)phenyl]-N-(4′-chlorobiphenyl-4-yl)acrylamide], `CC1CN(Cc2ccc(/C=C/C(=O)Nc3ccc(-c4ccc(Cl)cc4)cc3)cc2)CC(C)O1` (centres unmarked) [Example 5.23, (E)-N-(4′-chlorobiphenyl-4-yl)-3-[4-(2,6-dimethylmorpholin-4-ylmethyl)phenyl]acrylamide] is lower in melting point: 250 °C for the first, 212 to 213 °C for the second.

First: CN(Cc1ccc(NC(=O)C#Cc2ccc(-c3ccc(Cl)cc3)cc2)cc1)CC1CC1 [Example 3.15, 3-(4′-chlorobiphenyl-4-yl)propynoic acid-{4-[(cyclopropylmethylmethylamino)methyl]phenyl}amide]
Second: O=C(CCc1ccc(CNCC2CCCCC2)cc1)Nc1ccc(-c2ccc(Cl)cc2)cc1 [Example 6.22, N-(4′-chlorobiphenyl-4-yl)-3-{4-[(cyclohexylmethylamino)methyl]phenyl}propionamide]
The melting point of the first is lower: 164 to 167 °C for the first, 201 to 204 °C for the second.
